From ChEMBL document CHEMBL4831514, “Novel betulin dicarboxylic acid ester derivatives as potent antiviral agents: Design, synthesis, biological evaluation, structure-activity relationship and in-silico study” (Eur J Med Chem, 2021)
Active and inactive are the calls of the source. The calls are words filed in the database; no cut-off is given here.

Legend:
A549 = assay: (§1) Cytotoxicity against human A549 cells assessed as reduction in cell viability incubated for 48 hrs by MTT assay; type: cell-based; settings: a549, 48 h
[1] = as §1; type: cell-based; settings: A549 cells
MDCK = assay: Cytotoxicity against MDCK cells assessed as reduction in cell viability incubated for 72 hrs by MTT assay; type: cell-based, Canis lupus familiaris; settings: dog, mdck, 72 h
Enterovirus E = assay: Antiviral activity against Enterovirus E LCR-4 infected in A549 cells assessed as inhibition of viral adsorption at early stage of replication treated for 1 hr during viral infection followed by replacement with fresh medium and measured after 72 hrs by MTT assay; type: functional, organism-based
Human alphaherpesvirus 1 [2] = assay: (§2) Potency index, ratio of acyclovir EC50 to test compound EC50 for antiviral activity against Human herpesvirus 1 MacIntyre infected in A549 cells assessed as reduction in virus titer treated 1 hr post viral infection followed by replacement with fresh medium with compounds and measured after 48 hrs by MTT assay; type: functional
[3] = system: Vesicular stomatitis virus; assay: Antiviral activity against Vesicular stomatitis virus Indiana infected in A549 cells assessed as reduction in virus titer preincubated for 24 hrs followed by viral infection and measured after 72 hrs by microscopic analysis; type: functional, organism-based
Human adenovirus 5 [4] = assay: Antiviral activity against Human adenovirus 5 Adenoid 75 infected in A549 cells assessed as inhibition of viral adsorption at early stage of replication treated for 1 hr during viral infection followed by replacement with fresh medium and measured after 72 hrs by MTT assay; type: functional, organism-based
Human adenovirus 5 [5] = assay: Antiviral activity against Human adenovirus 5 Adenoid 75 infected in A549 cells assessed as reduction in virus titer preincubated for 24 hrs followed by viral infection and measured after 72 hrs by microscopic analysis; type: functional, organism-based
[6] = as §2, with “Selectivity” for “Potency”, “CC50 for cytotoxicity against human A549 cells” for “acyclovir EC50”, “to” for “to test compound”, “72” for “48”; type: toxicity, cell-based; settings: read-out: Selectivity Index
Human alphaherpesvirus 1 [7] = assay: Antiviral activity against Human herpesvirus 1 MacIntyre infected in A549 cells assessed as reduction in virus titer treated 1 hr post viral infection followed by replacement with fresh medium with compounds and measured after 48 hrs by MTT assay; type: functional, organism-based; settings: Human alphaherpesvirus 1, MacIntyre
Human alphaherpesvirus 1 [8] = assay: Antiviral activity against Human herpesvirus-1 MacIntyre infected in A549 cells assessed as inhibition of viral adsorption at early stage of replication treated for 1 hr during viral infection followed by replacement with fresh medium and measured after 48 hrs by MTT assay; type: functional, organism-based
Human alphaherpesvirus 1 [9] = assay: Antiviral activity against Human herpesvirus 1 MacIntyre infected in A549 cells assessed as reduction in virus titer preincubated for 24 hrs followed by viral infection and measured after 72 hrs by microscopic analysis; type: functional, organism-based

| Structure (SMILES) | CC20 (A549) [µM] | CC50 at 48 h [1] [µM] | CC20 (MDCK) [µM] | Activity (Enterovirus E) | Ratio EC50 (Human alphaherpesvirus 1 [2]) | Activity [3] | Activity (Human adenovirus 5 [4]) | Activity (Human adenovirus 5 [5]) | selectivity ratio at 72 h [6] | EC50 (Human alphaherpesvirus 1 [7]) [µM] | Activity (Human alphaherpesvirus 1 [8]) | Activity (Human alphaherpesvirus 1 [9]) |
| --- | --- | --- | --- | --- | --- | --- | --- | --- | --- | --- | --- | --- |
| C=C(C)[C@@H]1CC[C@]2(COC(=O)/C=C(\C)C(=O)N3CCCCC3)CC[C@]3(C)[C@H](CC[C@@H]4[C@@]5(C)CC[C@H](O)C(C)(C)[C@@H]5CC[C@]43C)[C@@H]12 | 34.34 | 68.7 | 4.26 | inactive | 3 | inactive | inactive | inactive | 4 | 17.2 | inactive | inactive |
| C=C(C)[C@@H]1CC[C@]2(COC(=O)c3ccccc3C(=O)N3CCSCC3)CC[C@]3(C)[C@H](CC[C@@H]4[C@@]5(C)CC[C@H](O)C(C)(C)[C@@H]5CC[C@]43C)[C@@H]12 | 58.9 | 350 | 7.3 | inactive | 3 | inactive | inactive | inactive | 11.8 | 29.6 | inactive | inactive |
| C=C(C)[C@@H]1CC[C@]2(COC(=O)c3ccccc3C(=O)N3CCCCC3)CC[C@]3(C)[C@H](CC[C@H]4C3(C)CC[C@H]3C(C)(C)[C@@H](O)CC[C@@]34C)[C@@H]12 (single isomer, unassigned) | 65.45 | 65.4 | 32.72 | inactive | 3 | inactive | inactive | inactive | 2 | 32.7 | inactive | inactive |
| C=C(C)[C@@H]1CC[C@]2(COC(=O)CCCC(=O)N3CCCCC3)CC[C@]3(C)[C@H](CC[C@@H]4[C@@]5(C)CC[C@H](O)C(C)(C)[C@@H]5CC[C@]43C)[C@@H]12 | 17.12 |  | 4.25 | inactive | 3 | inactive | inactive | inactive |  |  | inactive | inactive |
| C=C(C)[C@@H]1CC[C@]2(COC(=O)CCCCCCCCCC(=O)N3CCOCC3)CC[C@]3(C)[C@H](CC[C@@H]4[C@@]5(C)CC[C@H](O)C(C)(C)[C@@H]5CC[C@]43C)[C@@H]12 | 34.77 | 164 | 139.08 | inactive | 3 | inactive | inactive | inactive | 4.7 | 34.8 | inactive | inactive |
| C#CC1(NC(=O)CCC(=O)OC[C@]23CC[C@@H](C(=C)C)[C@@H]2[C@H]2CC[C@@H]4[C@@]5(C)CC[C@H](O)C(C)(C)[C@@H]5CC[C@@]4(C)[C@]2(C)CC3)CCCCC1 | 110.38 |  | 0.77 | inactive |  | inactive | inactive | inactive |  |  | inactive | inactive |
| C=C(C)[C@@H]1CC[C@]2(COC(=O)CCCCCCCCCC(=O)N3CCCCC3)CC[C@]3(C)[C@H](CC[C@@H]4[C@@]5(C)CC[C@H](O)C(C)(C)[C@@H]5CC[C@]43C)[C@@H]12 | 127.23 |  | 127.84 | inactive |  | inactive | inactive | inactive |  |  | inactive | inactive |
